In paper PMC9120017, “Inhibition mechanism of the chloride channel TMEM16A by the pore blocker 1PBC” (Nature Communications, 2022):
Read-outs that look alike come from different tables or passages of the source.

Target: T1, mouse TMEM16A mutant V511A (Mus musculus, UniProt Q8BHY3, V511A)
T1 construct: expressed in transfected cells; host or cells: HEK293T
T1 sequence (Q8BHY3 1-960 V511A): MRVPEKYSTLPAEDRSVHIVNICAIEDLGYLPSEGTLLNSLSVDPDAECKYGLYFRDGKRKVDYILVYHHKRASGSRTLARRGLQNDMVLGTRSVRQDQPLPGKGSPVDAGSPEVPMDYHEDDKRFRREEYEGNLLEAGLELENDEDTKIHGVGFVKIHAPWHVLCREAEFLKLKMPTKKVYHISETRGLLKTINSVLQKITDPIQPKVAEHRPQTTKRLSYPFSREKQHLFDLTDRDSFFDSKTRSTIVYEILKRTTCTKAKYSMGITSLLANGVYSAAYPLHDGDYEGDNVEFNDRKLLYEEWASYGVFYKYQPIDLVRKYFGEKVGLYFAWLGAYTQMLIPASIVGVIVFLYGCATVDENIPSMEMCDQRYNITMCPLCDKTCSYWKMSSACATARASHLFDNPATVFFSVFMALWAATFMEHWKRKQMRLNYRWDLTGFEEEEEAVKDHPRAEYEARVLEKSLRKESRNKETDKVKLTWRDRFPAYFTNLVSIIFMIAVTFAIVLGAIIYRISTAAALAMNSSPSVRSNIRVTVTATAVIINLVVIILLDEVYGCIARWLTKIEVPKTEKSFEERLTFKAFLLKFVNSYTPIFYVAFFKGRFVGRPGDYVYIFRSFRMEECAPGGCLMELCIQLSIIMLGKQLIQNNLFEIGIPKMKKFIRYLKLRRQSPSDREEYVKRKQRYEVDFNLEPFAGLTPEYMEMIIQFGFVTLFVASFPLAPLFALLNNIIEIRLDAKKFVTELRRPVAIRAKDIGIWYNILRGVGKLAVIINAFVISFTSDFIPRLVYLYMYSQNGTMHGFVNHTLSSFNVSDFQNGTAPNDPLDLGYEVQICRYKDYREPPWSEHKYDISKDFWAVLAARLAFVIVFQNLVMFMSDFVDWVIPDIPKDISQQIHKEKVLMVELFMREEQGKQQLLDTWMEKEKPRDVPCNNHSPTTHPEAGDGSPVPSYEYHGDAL
Experiment: Inside-out patch recording of 1PBC block, mutant V511A
Assay type: cell-based
Conditions: for remaining activity at 3 µM: 1PBC 3; for remaining activity at 3 µM / remaining activity at 10 µM / remaining activity at 30 µM / remaining activity at 100 µM: read-out: fraction of unblocked current; for remaining activity at 10 µM: 1PBC 10; for remaining activity at 30 µM: 1PBC 30; for remaining activity at 100 µM: 1PBC 100
Description: HEK293T cells (ATCC CRL-1573) were maintained in Dulbecco’s modified Eagle’s medium (DMEM; Sigma-Aldrich) supplemented with 10 U ml^−1 penicillin, 0.1 mg ml^−1 streptomycin (Sigma-Aldrich), 2 mM L-glutamine (Sigma-Aldrich), and 10% FBS (Sigma-Aldrich) in a humidified atmosphere containing 5% CO2 at 37 °C. HEK293S GnTI^− cells (ATCC CRL-3022) were maintained in HyClone HyCell TransFx-H medium (GE Healthcare) supplemented with 10 U ml^−1 penicillin, 0.1 mg ml^−1 streptomycin, 4 mM L-glutamine, 0.15% poloxamer 188 (Sigma-Aldrich), and 1% FBS in an atmosphere containing 5% CO2 at 185 rpm at 37 °C. The ac splice variant of mouse TMEM16A (UniProt ID: Q8BHY3), mouse TMEM16B (UniProt ID: Q8CFW1), or mouse TMEM16F (UniProt ID: Q6P9J9) bearing a 3C cleavage site, a Venus YFP, a Myc tag, and a Streptavidin-binding peptide (SBP) downstream of the open reading frame in a modified pcDNA3.1 vector (Invitrogen) were used as described previously[21],[31]. Mutations were introduced using a modified QuikChange method[58] and were verified by sequencing.
HEK293T cells were transfected with 3–4 μg DNA per 6 cm Petri dish using the calcium phosphate co-precipitation method and were used within 24–96 h after transfection. Recordings were performed on inside-out patches excised from HEK293T cells expressing the construct of interest. Patch pipettes were pulled from borosilicate glass capillaries (O.D. 1.5 mm, I.D. 0.86 mm, Sutter Instrument) and were fire-polished with a microforge (Narishige) before use. Pipette resistance was typically 3–8 MΩ when filled with the recording solutions detailed below. Seal resistance was typically 4 GΩ or higher. Voltage-clamp recordings were made using Axopatch 200B, Digidata 1550, and Clampex 10.7 (Molecular Devices). Analog signals were filtered with the in-built 4-pole Bessel filter at 10 kHz and were digitized at 20 kHz. Solution exchange was achieved using a gravity-fed system through a theta glass pipette mounted on an ultra-fast piezo-driven stepper (Siskiyou). […] All recordings were performed at 20 °C.
A symmetrical ionic condition was used throughout. Stock solution with Ca^2+-EGTA contained 150 mM NaCl, 5.99 mM Ca(OH)2, 5 mM EGTA, and 10 mM HEPES at pH 7.40. Stock solution with EGTA contained 150 mM NaCl, 5 mM EGTA, and 10 mM HEPES at pH 7.40. Free Ca^2+ concentrations were adjusted by mixing the stock solutions at the required ratios calculated using the WEBMAXC program (http://web.stanford.edu/~cpatton/webmaxcS.htm). Patch pipettes were filled with the stock solution with Ca^2+-EGTA, which has a free Ca^2+ concentration of 1 mM. 1PBC (ChemBridge) stock was reconstituted in anhydrous DMSO (Sigma-Aldrich) at 100 mM and stored at −20 °C. Working solutions with 1PBC were prepared by serial dilution. Unless otherwise stated, experiments were performed at a saturating Ca^2+ concentration as shown in Supplementary Table 1 and the primary data were corrected for current rundown as described previously[21],[25].
Concentration-response relations, obtained from the ratio of the I-V plots before and after the application of the blocker, were fitted to the Hill equation,1 I/Imax=1/1+IC50/[blocker]^h where I/Imax is the normalized current responses, IC50 defines the concentration at which inhibition is at its half-maximum, and h is the Hill coefficient.

- IC50 (0 mV, 2 µM Ca2+): 20.8 µM
- remaining activity at 3 µM (0 mV): 87.8%
- remaining activity at 3 µM (20 mV): 84.4%
- remaining activity at 3 µM (40 mV): 80.2%
- remaining activity at 3 µM (60 mV): 77.1%
- remaining activity at 3 µM (80 mV): 73.1%
- remaining activity at 3 µM (100 mV): 70.9%
- remaining activity at 3 µM (120 mV): 69.6%
- remaining activity at 3 µM (140 mV): 70.4%
- remaining activity at 3 µM (-20 mV): 91.2%
- remaining activity at 3 µM (-40 mV): 93%
- remaining activity at 3 µM (-60 mV): 94.7%
- remaining activity at 3 µM (-80 mV): 95.6%
- remaining activity at 3 µM (-100 mV): 95.2%
- remaining activity at 3 µM (-120 mV): 95.6%
- remaining activity at 3 µM (-140 mV): 94.5%
- remaining activity at 10 µM (0 mV): 68%
- remaining activity at 10 µM (20 mV): 62.6%
- remaining activity at 10 µM (40 mV): 56.1%
- remaining activity at 10 µM (60 mV): 50.6%
- remaining activity at 10 µM (80 mV): 45.9%
- remaining activity at 10 µM (100 mV): 43.5%
- remaining activity at 10 µM (120 mV): 41.9%
- remaining activity at 10 µM (140 mV): 42.2%
- remaining activity at 10 µM (-20 mV): 73.3%
- remaining activity at 10 µM (-40 mV): 78.6%
- remaining activity at 10 µM (-60 mV): 82.2%
- remaining activity at 10 µM (-80 mV): 84.9%
- remaining activity at 10 µM (-100 mV): 86.6%
- remaining activity at 10 µM (-120 mV): 87%
- remaining activity at 10 µM (-140 mV): 87.7%
- remaining activity at 30 µM (0 mV): 40.9%
- remaining activity at 30 µM (20 mV): 35.2%
- remaining activity at 30 µM (40 mV): 30.5%
- remaining activity at 30 µM (60 mV): 26.5%
- remaining activity at 30 µM (80 mV): 24%
- remaining activity at 30 µM (100 mV): 22.5%
- remaining activity at 30 µM (120 mV): 22.7%
- remaining activity at 30 µM (140 mV): 23.4%
- remaining activity at 30 µM (-20 mV): 46.5%
- remaining activity at 30 µM (-40 mV): 52.4%
- remaining activity at 30 µM (-60 mV): 58.4%
- remaining activity at 30 µM (-80 mV): 63.9%
- remaining activity at 30 µM (-100 mV): 68.3%
- remaining activity at 30 µM (-120 mV): 71.3%
- remaining activity at 30 µM (-140 mV): 72.9%
- remaining activity at 100 µM (0 mV): 16.5%
- remaining activity at 100 µM (20 mV): 13.8%
- remaining activity at 100 µM (40 mV): 11.5%
- remaining activity at 100 µM (60 mV): 10.1%
- remaining activity at 100 µM (80 mV): 9.26%
- remaining activity at 100 µM (100 mV): 9.4%
- remaining activity at 100 µM (120 mV): 9.52%
- remaining activity at 100 µM (140 mV): 9.88%
- remaining activity at 100 µM (-20 mV): 19.3%
- remaining activity at 100 µM (-40 mV): 23.1%
- remaining activity at 100 µM (-60 mV): 28.5%
- remaining activity at 100 µM (-80 mV): 33.3%
- remaining activity at 100 µM (-100 mV): 37.9%
- remaining activity at 100 µM (-120 mV): 41.7%
- remaining activity at 100 µM (-140 mV): 44.8%
- IC50 (20 mV, 2 µM Ca2+): 16.4 µM
- IC50 (40 mV, 2 µM Ca2+): 12.8 µM
- IC50 (60 mV, 2 µM Ca2+): 10.4 µM
- log-fold IC50 (change of mutant vs WT) (80 mV): 0.5163
- IC50 (80 mV, 2 µM Ca2+): 8.67 µM
- IC50 (100 mV, 2 µM Ca2+): 7.86 µM
- IC50 (120 mV, 2 µM Ca2+): 7.49 µM
- IC50 (140 mV, 2 µM Ca2+): 7.71 µM
- IC50 (-20 mV, 2 µM Ca2+): 26.3 µM
- IC50 (-40 mV, 2 µM Ca2+): 33.3 µM
- IC50 (-60 mV, 2 µM Ca2+): 42.3 µM
- IC50 (-80 mV, 2 µM Ca2+): 52.4 µM
- IC50 (-100 mV, 2 µM Ca2+): 62.9 µM
- IC50 (-120 mV, 2 µM Ca2+): 72.1 µM
- IC50 (-140 mV, 2 µM Ca2+): 79.5 µM
- IC50 (V511A, V 0 mV): 20.8 µM
- IC50 (V511A, V 20 mV): 16.4 µM
- IC50 (V511A, V 40 mV): 12.8 µM
- IC50 (V511A, V 60 mV): 10.4 µM
- IC50 (V511A, V 80 mV): 8.67 µM
- IC50 (V511A, V 100 mV): 7.86 µM
- IC50 (V511A, V 120 mV): 7.49 µM
- IC50 (V511A, V 140 mV): 7.71 µM
- IC50 (V511A, V -20 mV): 26.3 µM
- IC50 (V511A, V -40 mV): 33.3 µM
- IC50 (V511A, V -60 mV): 42.3 µM
- IC50 (V511A, V -80 mV): 52.4 µM
- IC50 (V511A, V -100 mV): 62.9 µM
- IC50 (V511A, V -120 mV): 72.1 µM
- IC50 (V511A, V -140 mV): 79.5 µM
Compound: N#Cc1c(C(F)(F)F)cc(O)n2c1nc1ccccc12 [1PBC]
